Data from article PMC6940912, “Novel Drug-Like Somatostatin Receptor 4 Agonists are Potential Analgesics for Neuropathic Pain” (International Journal of Molecular Sciences, 2019).

What was measured:
sst4 receptor = biological target: T1, sst4 receptor (Homo sapiens, UniProt P31391); assay: sst4 receptor-linked G-protein activation, [35S]GTPγS binding assay on membranes of sst4-expressing CHO cells; type: biochemical; conditions: for EC50: 1 nM to 10 µM, n = 3; for Emax: [35S]GTPγS binding, mean ± SEM, n = 3, read-out: Maximal activation over the basal activity of the receptor (efficacy)
T1 construct: expressed in transfected cells; host or cells: CHO cells
T1 sequence (P31391 whole entry): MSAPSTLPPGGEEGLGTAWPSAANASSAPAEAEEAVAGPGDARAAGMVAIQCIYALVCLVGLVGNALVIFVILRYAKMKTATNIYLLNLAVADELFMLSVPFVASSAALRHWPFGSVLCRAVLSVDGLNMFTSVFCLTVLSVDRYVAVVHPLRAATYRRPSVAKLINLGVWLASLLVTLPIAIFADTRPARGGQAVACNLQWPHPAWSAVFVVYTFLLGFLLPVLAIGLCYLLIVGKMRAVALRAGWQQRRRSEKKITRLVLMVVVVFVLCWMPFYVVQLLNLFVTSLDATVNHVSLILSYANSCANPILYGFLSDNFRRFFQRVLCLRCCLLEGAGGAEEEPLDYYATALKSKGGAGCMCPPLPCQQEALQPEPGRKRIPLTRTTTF
Method: Membrane fractions were prepared from CHO cells, which express the sst4 receptor, in Tris–ethylene glycol-bis(2-aminoethyl)tetraacetic acid (Tris–EGTA) buffer (50 mM Tris–HCl (Sigma, St. Louis, MO, USA), 1 mM EGTA (Sigma, St. Louis, MO, USA), 3 mM MgCl2 (Sigma, St. Louis, MO, USA), 100 mM NaCl (Sigma, St. Louis, MO, USA), pH 7.4, 10 μg of protein/sample). The fractions were incubated in the buffer containing 0.05 nM guanosine triphosphate (GTP) (BioChemica International Inc., Melbourne, Florida, USA), labeled on the gamma phosphate group with ^35S ([^35S]GTPγS) (Isotop Institute, Budapest, Hungary) and increasing concentrations (1 nM to 10 µM) of C1, C2, C3 and C4 compounds for 60 min at 30 °C, in the presence of 30 μM guanosine diphosphate (GDP) (Sigma, St. Louis, MO, USA). We determined the nonspecific binding in the presence of 10 μM unlabeled GTPγS and total binding in the absence of test compounds. Samples were filtrated through Whatman GF/B glass fiber filters using 48-well Slot Blot Manifold from Cleaver Scientific (Cleaver Scientific Ltd., Rugby, Warwickshire, United Kingdom). Filters were washed with ice-cold 50 mM Tris–HCl buffer (pH 7.4) and radioactivity was measured in a β-counter (PerkinElmer Inc., Waltham, MA, USA). The test-compound-induced G-protein activation was given as percentage over the specific [^35S]GTPγS binding detected in the absence of agonists.
(§1) In the sst4 receptor activation assay, all the compounds were dissolved in dimethyl sulfoxide (DMSO) (Szkarabeusz Ltd., Pécs, Hungary). The concentration of the stock solutions was 10 mM and was diluted with distilled water to reach the final concentrations. For the in vivo experiments, 1 mg of the compounds was rubbed dry in a braying mortar, suspended thoroughly in 1 mL 1.25% methylcellulose (MC) (Pharmacy of University of Pécs, Pécs, Hungary) solution and then dissolved in sterile bidistilled water to get a 1000 µg/mL stock solution freshly every experimental day. Most microsuspensions looked opalescent; they were shaken properly, sonicated, and further diluted with 1.25% MC to obtain the 25 µg/mL solution for oral administrations (0.2 mL/10 g body weight for the 500 µg/kg dose). The solutions were shaken and sonicated again directly before use. The vehicle was always 1.25% MC dissolved in sterile bidistilled water.

Male NMRI mice [1] = assay: RTX-induced acute neurogenic inflammatory thermal allodynia and mechanical hyperalgesia; type: in vivo, mouse; conditions: oral pretreatment 1 h before intraplantar RTX, printed dose 500 µg/kg
Method: The investigated compounds (500 µg/kg p.o.) or the vehicle were administered orally 1 h before the induction of the acute neurogenic inflammation by intraplantar RTX (Sigma, St. Louis, MO, USA) injection (20 µL, 0.1 µg/mL) into the right hindpaw. RTX evokes an acute neurogenic inflammatory reaction with the development of a rapid thermal allodynia, mainly due to peripheral sensitization mechanisms, and a later developing mechanical hyperalgesia due also to central sensitization. The nociceptive heat threshold was determined before (control) and 10, 20 and 30 min after RTX administration with an increasing-temperature hot plate (IITC Life Science, Woodland Hills, CA, USA). […] The mechanonociceptive threshold was measured with an electronic von Frey device (dynamic plantar aesthesiometer (DPA), Ugo Basile, Comerio, Italy) prior to RTX injection and 30, 60 and 90 min afterwards. The measurement at 30 min was performed immediately after the last heat threshold measurement. The experiment consisted of two separate series on consecutive days and the number of animals in the control group was six per day. Therefore, the control group contained 12 mice, and six and five mice were used in the C1- and C2-treated groups, respectively.
as §1
Male NMRI mice (8–12 weeks old) bred in the Laboratory Animal House of the Department of Pharmacology and Pharmacotherapy of the University of Pecs were kept in standard plastic cages at 24–25 °C, under a 12–12 h light–dark cycle and provided with standard rodent chow and water ad libitum. […]

Male NMRI mice [2] = assay: Partial sciatic nerve ligation-induced chronic traumatic neuropathic mechanical hyperalgesia; type: in vivo, mouse
Method: After conditioning and two control mechanonociceptive measurements on 2 consecutive days, mice were anaesthetized by the combination of ketamine (100 mg/kg, i.p.) and xylazine (10 mg/kg, i.p.). Traumatic mononeuropathy was achieved by one-third to one-half part ligation of the right sciatic nerve. Significant decrease in the mechanical threshold develops 7 days after operation. The mechanonociceptive threshold of the plantar surface of the hindpaws was measured by DPA on the 7th postoperative day. The paw withdrawal threshold was obtained in grams (the maximal value was 10 g; ramp time of 4 s). The compounds (500 µg/kg) or the vehicle were administered orally on day 7, one hour before the repeated measurement. The experiment consisted of separate series on 3 consecutive days, and there were 2–3 vehicle-treated control animals in every series. Therefore, each group contained 8 mice.
as §1
Male NMRI mice (8–12 weeks old) bred in the Laboratory Animal House of the Department of Pharmacology and Pharmacotherapy of the University of Pecs were kept in standard plastic cages at 24–25 °C, under a 12–12 h light–dark cycle and provided with standard rodent chow and water ad libitum. All experimental procedures complied with the recommendations of the 1998/XXVIII Act of the Hungarian Parliament on Animal Protection and Consideration Decree of Scientific Procedures of Animal Experiments (63/2010) and were approved by the Ethics Committee on Animal Research of Pecs University according to the Ethical Codex of Animal Experiments; license was given (license No. BA1/35/55-50/2017). We made all efforts to minimize the number and suffering of the animals used in this study.

[3] = day 7 after sciatic nerve ligation, 500 µg/kg oral, 1 h later, n = 8
[4] = day 7 after sciatic nerve ligation, pretreatment self-control, n = 8

| SMILES | EC50 (sst4 receptor) | Emax (sst4 receptor) | Effect on acute neurogenic inflammatory heat hyperalgesia (Male NMRI mice [1]; at 10 and 30 min) | Effect on RTX-induced mechanical hyperalgesia (Male NMRI mice [1]; at 30 min) | Mechanonociceptive threshold of operated limb, 1 h after treatment (Male NMRI mice [2]; [3]) | Neuropathic mechanical hyperalgesia, 1 h after treatment (Male NMRI mice [2]; [3]) | Mechanonociceptive threshold of operated limb, before treatment (Male NMRI mice [2]; [4]) | Neuropathic mechanical hyperalgesia, before treatment (Male NMRI mice [2]; [4]) | Anti-hyperalgesic effect on neuropathic mechanical hyperalgesia (Male NMRI mice [2]; traumatic nerve injury, single oral 500 µg/kg) |
| --- | --- | --- | --- | --- | --- | --- | --- | --- | --- |
| COc1ccc(CNc2ncnc3c2c(C)c(C)n3Cc2ccccc2)cc1 [Compound 4, 4-Methoxy-benzyl-[7-benzyl-5,6-dimethyl-7H-pyrrolo[2,3-d]pyrimidin-4-yl]-amine] | 0.07 µM | 177% |  |  |  |  |  |  |  |
| COc1ccc(CCNc2ncnc3c2c(C)c(C)n3Cc2ccccc2)cc1 [Compound 2, (7-Benzyl-5,6-dimethyl-7H-pyrrolo[2,3-d]pyrimidin-4-yl)-[2-(4-methoxy-phenyl)-ethyl]-amine] | 0.066 µM | 203% | not | not | 8.04 ± 0.31 g | 15.70% ± 2.84 | 6.53 ± 0.30 g | 31.39% ± 3.39 | 50% |
